Values quoted from earlier work, collected in article PMC6422283 (Future medicinal chemistry, 2015).

Test system: TRPV1
Conditions: capsaicin-induced Ca2+ flux into HEK293 cells

Row | SMILES | IC50 [nM]
1 | Cc1nc2cc(NC(=O)c3ccc(-c4ccc(F)cc4)nc3C)ccc2s1 [SB782443] | 49
2 | Oc1cc2c(cc1O)CN(C(=S)NCCc1ccc(Cl)cc1)CCC2 [Compound 2, capsazepine] | 100
